Key:
ME-SFCs [1] = assay: Long-term study: transient cytokine exposure of ME-SFCs, decidualization 25 days after final treatment (IGFBP-1 ELISA); format: cell-based, human; conditions: for SFC decidualization capacity after transient exposure: FIG. 4A-4B
Description: (§1) In vitro exposure of ME-SFCs to inflammatory cytokines (e.g. TNFα) reduces decidualization capacity. […] After 24 hrs, culture supernatants were collected and IGFBP-1 protein levels were measured by ELISA. […] Twenty four hours later, the culture supernatants were collected and IGFBP-1 protein levels were measured by ELISA.

ME-SFCs [2] = assay: Acute exposure of ME-SFCs to inflammatory cytokines, then cAMP decidualization (IGFBP-1 ELISA); format: cell-based, human; conditions: TNFα 1 pg/ml-10 ng/ml; SFCs from a normal subject; 24 hours; cAMP 0.5 mM
Description: as §1

| Substance | SFC decidualization capacity after transient exposure (ME-SFCs [1]) | decidualization capacity of SFCs (ME-SFCs [2]) | persistence of decidualization defects (reduced IGFBP1 production) after removal from culture (ME-SFCs [1]; TNFα 0.1-1.0 ng/ml on days 0 and 5, decidualization with cAMP alone or cAMP and medroxyprogesterone) | cell viability (SFCs) |
| --- | --- | --- | --- | --- |
| IL-1β: inflammatory cytokine | persistent defects | – | – | – |
| TNFα | persistent defects | dramatically reduces decidualization capacity | at least 25 days | not affected |
